Results from publication PMC5808360, “Neutral Porphyrin Derivative Exerts Anticancer Activity by Targeting Cellular Topoisomerase I (Top1) and Promotes Apoptotic Cell Death without Stabilizing Top1-DNA Cleavage Complexes” (Journal of Medicinal Chemistry, 2017).

Legend:
[1] = molecular target: T1, EGFP-human Top1 in MCF7 cells (Homo sapiens, UniProt P11387); assay: FRAP of EGFP-Top1 in live MCF7 cells; type: cell-based; details: CPT 5 μM 10 min, then compound 20 μM 10 min
T1 construct: expressed in transfected cells; host or cells: MCF7 cells, transient transfection (Lipofectamine 2000)
T1 sequence (P11387 1-765): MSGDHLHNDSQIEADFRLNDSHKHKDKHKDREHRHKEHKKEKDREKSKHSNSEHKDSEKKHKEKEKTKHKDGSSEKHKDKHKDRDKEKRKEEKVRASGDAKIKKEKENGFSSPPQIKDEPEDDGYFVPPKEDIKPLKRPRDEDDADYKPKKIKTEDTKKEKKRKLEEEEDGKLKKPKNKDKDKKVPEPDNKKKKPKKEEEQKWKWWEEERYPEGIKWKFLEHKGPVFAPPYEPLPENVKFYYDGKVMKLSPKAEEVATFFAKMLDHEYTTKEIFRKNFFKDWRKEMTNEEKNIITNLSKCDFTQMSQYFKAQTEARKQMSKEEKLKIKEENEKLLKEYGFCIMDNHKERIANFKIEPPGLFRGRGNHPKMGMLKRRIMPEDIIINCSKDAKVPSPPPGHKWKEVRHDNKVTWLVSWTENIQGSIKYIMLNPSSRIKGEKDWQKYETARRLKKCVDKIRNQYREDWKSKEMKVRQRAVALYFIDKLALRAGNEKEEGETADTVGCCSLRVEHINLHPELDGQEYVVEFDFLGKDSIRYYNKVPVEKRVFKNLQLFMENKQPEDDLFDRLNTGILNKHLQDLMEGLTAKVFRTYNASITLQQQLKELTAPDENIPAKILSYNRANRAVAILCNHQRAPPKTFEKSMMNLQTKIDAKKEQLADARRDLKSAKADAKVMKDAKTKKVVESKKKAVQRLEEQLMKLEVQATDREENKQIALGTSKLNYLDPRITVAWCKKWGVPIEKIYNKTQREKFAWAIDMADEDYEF
Procedure: To obtain direct evidence for compound 8 mediated inhibition of Top1cc formation in live human carcinoma cells, we used MCF7 cells and transiently expressed EGFP-Top1. Live cells expressing ectopic Top1 were analyzed under laser confocal microscopy equipped with fluorescence recovery after photobleaching (FRAP) technology.[40]−[42]
Photobleaching experiments were performed as described formerly[40]−[42] using Andor Spining disk inverted confocal laser-scanning microscope equipped with a 60×/1.42 NA oil-immersion objective (Olympus) and with a CO2-controlled on-stage heated environmental chamber set to 37 °C. FRAP analyses were carried out with living MCF7 cells ectopically expressing EGFP-human Top1 grown on chamber cover glass (Genetix, India) and drug treated as indicated. For FRAP analysis, a subnuclear spot was bleached for 30 ms by solid-state laser line (488 nm for EGFP) adapted to the fluorescent protein of interest and FRAP curves were generated individually normalized to the prebleach signal as described previously.[42]

[2] = test system: human breast adenocarcinoma cell lines (MCF7); assay: Cell survival (MTT) assay, MCF7; type: cell-based; details: MCF7, CPT 5 μM 12 h prior to addition of compound 8
Procedure: Compound 8 was investigated for its cytotoxicity in the cancer cell lines from different tissue origin,[6],[41] as well as in the noncancerous human embryonic kidney cell lines (HEK293) and mouse embryonic fibroblasts (MEFs). […] The MCF7 breast cancer cell lines were most susceptible to compound 8.
Cell survival was assessed by 3-(4,5-dimethylthiazol-2-yl)-2,5-diphenyltetrazolium bromide (MTT) assay as discussed previously.[6] The percent inhibition of viability for each concentration of the compounds was calculated with respect to the control, and IC50 values were estimated.

[3] = test system: PARP1 cleavage in MCF7 cells; assay: Western blot of PARP1 cleavage in treated MCF7 cells; type: cell-based, human; details: 10 μM, 12 h
Procedure: Preparation of whole cell extracts from MCF7 cells and immunoblotting were carried out as described.[6],[40],[41] Immunoreactivity was detected using ECL chemiluminescence reaction (Amersham) under ChemiDoc MP system (Bio-Rad, USA).

[4] = molecular target: T2, Top1-DNA cleavage complexes (Top1cc) (Homo sapiens, UniProt P11387); assay: Plasmid DNA cleavage assay (Top1cc formation); type: biochemical
T2 construct: made in house; host or cells: Sf-9 insect cells (recombinant baculovirus, gift of Prof. James J. Champoux)
T2 sequence (P11387 1-765): T1 sequence (P11387 1-765)
Procedure: Because camptothecin (CPT) stabilizes Top1-DNA cleavable complexes (Top1cc) to inhibit Top1 activity,[3],[5],[37] we investigated compound 8 induced Top1cc formation with the plasmid DNA cleavage assays.[6],[8],[36],[37] Top1 mediated conversion of closed circular DNA (form I) to nicked circular DNA (form II) in the presence of specific inhibitors is referred to as “cleavable complex”. […] To further investigate the impact of compound 8 on preformed Top1cc, we preincubated Top1 with plasmid DNA and CPT (Figure 2B) before the addition of compound 8 in the cleavage assays.
(§1) Plasmid DNA cleavage assay was carried out as described previously.[6],[8] For equilibrium cleavage assays, 25-mer duplex of oligonucleotide containing a Top1 binding motif was labeled and annealed as described previously.[13],[36],[38] Samples were analyzed by 12% sequencing gel electrophoresis, dried, and exposed on PhosphorImager screens and imaged with Typhoon FLA 7000 (GE Healthcare, U.K.).

recombinant Top1 = molecular target: T3, recombinant Top1 (Homo sapiens, UniProt P11387); assay: Plasmid DNA relaxation assay with recombinant human Top1; type: biochemical; details: 1 μM compound, preincubated with Top1 before addition of DNA
T3 construct: made in house; host or cells: Sf-9 insect cells (recombinant baculovirus, gift of Prof. James J. Champoux)
T3 sequence (P11387 1-765): T1 sequence (P11387 1-765)
Excerpt: To test the inhibitory effect of the synthetic library of neutral porphyrin compounds (Scheme 1) on human Top1 activity, we performed the DNA relaxation assays in a standard assay mixture containing the plasmid DNA and recombinant Top1.[6],[13],[36],[37]Table 1 enlists the compounds with relative efficiencies of Top1 inhibition as a measure of their effective drug concentrations (EC50 value), indicating the highest activity for the selected neutral porphyrin derivative compound 8.
To examine the mechanism of Top1 inhibition with compound 8, we used variable incubation conditions in the relaxation assays (Figure 1A). […] Next, to test the impact of compound 8 interaction with Top1 in the relaxation assays, we preincubated Top1 with compound 8 at indicated concentrations (Figure 1A, lanes 5–8) separately before the addition of DNA.[6],[13],[36],[38]
The recombinant human Top1 was purified from Sf-9 insect cells, infected with the recombinant baculovirus (a kind gift from Prof. James. J. Champoux) as described previously.[6],[13]
The type 1 DNA topoisomerase is assayed by decreased mobility of the relaxed isomers of supercoiled pBS (SK^+) DNA in 1% agarose gel. […]

[5] = molecular target: T2, Top1-DNA cleavage complexes (Top1cc); assay: Single turnover equilibrium cleavage assay with 25-mer duplex oligonucleotide; type: biochemical
Procedure: as §1

Top1 mobility restored in cells pretreated with CPT (FRAP) [1]: 12–15%
Effect on CPT-induced preformed Top1cc in plasmid DNA cleavage assay ([4]; Top1 preincubated with plasmid DNA and CPT before addition of compound, dose dependent): completely abrogated CPT-induced Top1cc
Stabilization of Top1cc in plasmid DNA cleavage assay ([4]; recombinant human Top1 100 fmol, pBS (SK+) DNA, 37 °C, 30 min): failed to stabilize Top1cc
inhibition at 1 µM (recombinant Top1): 85 to 95%
Stabilization of Top1cc in single turnover equilibrium cleavage assay ([5]; 25-mer duplex oligonucleotide, recombinant Top1 0.2 μM): failed to stabilize Top1cc
Effect on CPT-induced Top1cc with 12-mer cleaved oligonucleotides ([5]; Top1 incubated with CPT before addition of compound): reversed the CPT-induced Top1cc
SMILES: CN(C)c1ccc(-c2c3nc(c(-c4ccc(N(C)C)cc4)c4ccc([nH]4)c(-c4ccc(C(=O)O)cc4)c4nc(c(-c5ccc(C(=O)O)cc5)c5ccc2[nH]5)C=C4)C=C3)cc1 [Compound 8, 5,10-Bis(4-carboxyphenyl)-15,20-bis(4-dimethylaminophenyl)porphyrin]
Cytotoxicity of CPT pretreatment followed by compound 8 [2]: not additive in cytotoxicity
PARP cleavage [3]: promotes PARP cleavage
